Earlier results as cited in patent US20260115176A1, “ALLOSTERIC MODULATORS OF CANNABINOID RECEPTORS AND METHODS OF TREATING NEUROPATHIC PAIN” (The Board of Trustees of the Leland Stanford Junior …, priority 2020, published 2026).

Test system: rodent model of neuropathic pain
Conditions: background statement

Structure (SMILES): Cc1ccc2c(C(C[N+](=O)[O-])c3cccs3)c(-c3ccccc3)[nH]c2c1 (centres unmarked) [ZCZ-011]
- efficacy in rodent model of neuropathic pain: could treat a rodent model of neuropathic pain
- psychoactive or hypothermic effects: without psychoactive or hypothermic effects
